Results: PubChem BioAssay (NCI)
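Tested at 5 concentrations; 48 h exposure; 96-well plates; endpoints linearly interpolated, else capped at highest concentration. Definition used: TGI = concentration required for complete inhibition of growth.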

Experiments:
Assay in all cases: NCI anticancer screen, dose series, 48 h
K-562 leukemia = tested on: K-562 leukemia
NCI/ADR-RES ovarian = tested on: NCI/ADR-RES ovarian
SR leukemia = tested on: SR leukemia
HT29 colon = tested on: HT29 colon
U251 CNS = tested on: U251 CNS
CCRF-CEM leukemia = tested on: CCRF-CEM leukemia
IGROV1 ovarian = tested on: IGROV1 ovarian
SK-MEL-2 melanoma = tested on: SK-MEL-2 melanoma
M14 melanoma = tested on: M14 melanoma
RXF 393 renal = tested on: RXF 393 renal
SK-MEL-28 melanoma = tested on: SK-MEL-28 melanoma
PC-3 prostate = tested on: PC-3 prostate
NCI-H23 lung = tested on: NCI-H23 lung
CAKI-1 renal = tested on: CAKI-1 renal
UACC-62 melanoma = tested on: UACC-62 melanoma
A549 NSCLC = tested on: A549 NSCLC
SF-295 CNS = tested on: SF-295 CNS
SNB-75 CNS = tested on: SNB-75 CNS
SK-OV-3 ovarian = tested on: SK-OV-3 ovarian
SN12C renal = tested on: SN12C renal
SF-268 CNS = tested on: SF-268 CNS
MDA-MB-231 breast = tested on: MDA-MB-231 breast
NCI-H460 lung = tested on: NCI-H460 lung
MDA-MB-435 = tested on: MDA-MB-435
BT-549 breast = tested on: BT-549 breast
NCI-H522 lung = tested on: NCI-H522 lung
SF-539 CNS = tested on: SF-539 CNS
HOP-92 NSCLC = tested on: HOP-92 NSCLC
HOP-62 NSCLC = tested on: HOP-62 NSCLC
LOX IMVI melanoma = tested on: LOX IMVI melanoma
UACC-257 melanoma = tested on: UACC-257 melanoma
ACHN renal = tested on: ACHN renal
EKVX NSCLC = tested on: EKVX NSCLC
HCT-116 colon = tested on: HCT-116 colon
SK-MEL-5 melanoma = tested on: SK-MEL-5 melanoma
UO-31 renal = tested on: UO-31 renal
MCF7 breast = tested on: MCF7 breast
OVCAR-4 ovarian = tested on: OVCAR-4 ovarian
HCT-15 colon = tested on: HCT-15 colon
OVCAR-5 ovarian = tested on: OVCAR-5 ovarian
MALME-3M melanoma = tested on: MALME-3M melanoma
786-0 renal = tested on: 786-0 renal
RPMI-8226 leukemia = tested on: RPMI-8226 leukemia
KM12 colon = tested on: KM12 colon
HS 578T breast = tested on: HS 578T breast
NCI-H226 lung = tested on: NCI-H226 lung
T-47D breast = tested on: T-47D breast
SNB-19 CNS = tested on: SNB-19 CNS
MOLT-4 leukemia = tested on: MOLT-4 leukemia
COLO 205 colon = tested on: COLO 205 colon
SW-620 colon = tested on: SW-620 colon
DU-145 prostate = tested on: DU-145 prostate
HL-60(TB) leukemia = tested on: HL-60(TB) leukemia
OVCAR-8 ovarian = tested on: OVCAR-8 ovarian
OVCAR-3 ovarian = tested on: OVCAR-3 ovarian
TK-10 renal = tested on: TK-10 renal
A498 renal = tested on: A498 renal
MDA-N = tested on: MDA-N

Measured: TGI

O=S(=O)(Nc1ccc2ccc3cccc4ccc1c2c34)c1ccccc1
32.5 µM: RPMI-8226 leukemia
53 µM: CCRF-CEM leukemia
98.3 µM: HOP-92 NSCLC
24.4 µM: MDA-MB-435
65.4 µM: SN12C renal
48.9 µM: OVCAR-3 ovarian
not listed: A498 renal | MDA-N
> 100 µM: all other assays above

C1=C(N2CCOCC2)/C(=C2\SC(=Nc3ccccc3)C(=Nc3ccccc3)N2c2ccccc2)CC1
69 µM: SK-OV-3 ovarian
65.4 µM: SNB-75 CNS
48.9 µM: UACC-62 melanoma
not listed: RXF 393 renal | A549 NSCLC | SF-268 CNS | BT-549 breast | SF-539 CNS | LOX IMVI melanoma | UACC-257 melanoma | ACHN renal | EKVX NSCLC | UO-31 renal | MCF7 breast | OVCAR-4 ovarian | OVCAR-5 ovarian | 786-0 renal | NCI-H226 lung | SNB-19 CNS | SW-620 colon | HL-60(TB) leukemia | TK-10 renal
> 100 µM: all other assays above
